Source: BigSolDB 2.1

CCCCCCCCCCCC[N+](C)(C)CCOc1ccccc1.[Br-]
solubility (mole fraction) (in DMAc, 283.15 K): 0.0168 | solubility (mole fraction) (in DMAc, 288.15 K): 0.0216 | solubility (mole fraction) (in DMAc, 293.15 K): 0.0306 | solubility (mole fraction) (in DMAc, 298.15 K): 0.0416 | solubility (mole fraction) (in DMAc, 303.15 K): 0.0492 | solubility (mole fraction) (in DMAc, 308.15 K): 0.0659 | solubility (mole fraction) (in DMAc, 313.15 K): 0.0786 | solubility (mole fraction) (in DMAc, 318.15 K): 0.105 | solubility (mole fraction) (in DMAc, 323.15 K): 0.121 | solubility (mole fraction) (in DMF, 283.15 K): 0.0238 | solubility (mole fraction) (in DMF, 288.15 K): 0.0292 | solubility (mole fraction) (in DMF, 293.15 K): 0.039 | solubility (mole fraction) (in DMF, 298.15 K): 0.0467 | solubility (mole fraction) (in DMF, 303.15 K): 0.0609 | solubility (mole fraction) (in DMF, 308.15 K): 0.0714 | solubility (mole fraction) (in DMF, 313.15 K): 0.0861 | solubility (mole fraction) (in DMF, 318.15 K): 0.115 | solubility (mole fraction) (in DMF, 323.15 K): 0.132 | solubility (mole fraction) (in DMSO, 293.15 K): 0.037 | solubility (mole fraction) (in DMSO, 298.15 K): 0.045 | solubility (mole fraction) (in DMSO, 303.15 K): 0.0551 | solubility (mole fraction) (in DMSO, 308.15 K): 0.0668 | solubility (mole fraction) (in DMSO, 313.15 K): 0.0826 | solubility (mole fraction) (in DMSO, 318.15 K): 0.103 | solubility (mole fraction) (in DMSO, 323.15 K): 0.124 | solubility (mole fraction) (in NMP, 283.15 K): 0.0215 | solubility (mole fraction) (in NMP, 288.15 K): 0.0284 | solubility (mole fraction) (in NMP, 293.15 K): 0.042 | solubility (mole fraction) (in NMP, 298.15 K): 0.0531 | solubility (mole fraction) (in NMP, 303.15 K): 0.0702 | solubility (mole fraction) (in NMP, 308.15 K): 0.0854 | solubility (mole fraction) (in NMP, 313.15 K): 0.108 | solubility (mole fraction) (in NMP, 318.15 K): 0.137 | solubility (mole fraction) (in NMP, 323.15 K): 0.169 | solubility (mole fraction) (in acetonitrile, 283.15 K): 0.00445 | solubility (mole fraction) (in acetonitrile, 288.15 K): 0.00562 | solubility (mole fraction) (in acetonitrile, 293.15 K): 0.00743 | solubility (mole fraction) (in acetonitrile, 298.15 K): 0.00991 | solubility (mole fraction) (in acetonitrile, 303.15 K): 0.0135 | solubility (mole fraction) (in acetonitrile, 308.15 K): 0.0188 | solubility (mole fraction) (in acetonitrile, 313.15 K): 0.0277 | solubility (mole fraction) (in acetonitrile, 318.15 K): 0.0415 | solubility (mole fraction) (in acetonitrile, 323.15 K): 0.0625 | solubility (mole fraction) (in ethanol, 283.15 K): 0.0832 | solubility (mole fraction) (in ethanol, 288.15 K): 0.107 | solubility (mole fraction) (in ethanol, 293.15 K): 0.13 | solubility (mole fraction) (in ethanol, 298.15 K): 0.157 | solubility (mole fraction) (in ethanol, 303.15 K): 0.179 | solubility (mole fraction) (in ethanol, 308.15 K): 0.204 | solubility (mole fraction) (in ethanol, 313.15 K): 0.227 | solubility (mole fraction) (in ethanol, 318.15 K): 0.251 | solubility (mole fraction) (in ethanol, 323.15 K): 0.275 | solubility (mole fraction) (in isobutanol, 288.15 K): 0.092 | solubility (mole fraction) (in isobutanol, 293.15 K): 0.118 | solubility (mole fraction) (in isobutanol, 298.15 K): 0.145 | solubility (mole fraction) (in isobutanol, 303.15 K): 0.175 | solubility (mole fraction) (in isobutanol, 308.15 K): 0.196 | solubility (mole fraction) (in isobutanol, 313.15 K): 0.224 | solubility (mole fraction) (in isobutanol, 318.15 K): 0.248 | solubility (mole fraction) (in isobutanol, 323.15 K): 0.287 | solubility (mole fraction) (in isopropanol, 283.15 K): 0.0234 | solubility (mole fraction) (in isopropanol, 288.15 K): 0.043 | solubility (mole fraction) (in isopropanol, 293.15 K): 0.07 | solubility (mole fraction) (in isopropanol, 298.15 K): 0.105 | solubility (mole fraction) (in isopropanol, 303.15 K): 0.139 | solubility (mole fraction) (in isopropanol, 308.15 K): 0.17 | solubility (mole fraction) (in isopropanol, 313.15 K): 0.199 | solubility (mole fraction) (in isopropanol, 318.15 K): 0.228 | solubility (mole fraction) (in isopropanol, 323.15 K): 0.258 | solubility (mole fraction) (in n-butanol, 283.15 K): 0.0833 | solubility (mole fraction) (in n-butanol, 288.15 K): 0.108 | solubility (mole fraction) (in n-butanol, 293.15 K): 0.134 | solubility (mole fraction) (in n-butanol, 298.15 K): 0.157 | solubility (mole fraction) (in n-butanol, 303.15 K): 0.181 | solubility (mole fraction) (in n-butanol, 308.15 K): 0.224 | solubility (mole fraction) (in n-butanol, 313.15 K): 0.263 | solubility (mole fraction) (in n-butanol, 318.15 K): 0.306 | solubility (mole fraction) (in n-butanol, 323.15 K): 0.346 | solubility (mole fraction) (in n-pentanol, 283.15 K): 0.0801 | solubility (mole fraction) (in n-pentanol, 288.15 K): 0.108 | solubility (mole fraction) (in n-pentanol, 293.15 K): 0.13 | solubility (mole fraction) (in n-pentanol, 298.15 K): 0.164 | solubility (mole fraction) (in n-pentanol, 303.15 K): 0.192 | solubility (mole fraction) (in n-pentanol, 308.15 K): 0.232 | solubility (mole fraction) (in n-pentanol, 313.15 K): 0.272 | solubility (mole fraction) (in n-pentanol, 318.15 K): 0.329 | solubility (mole fraction) (in n-pentanol, 323.15 K): 0.373 | solubility (mole fraction) (in n-propanol, 283.15 K): 0.0834 | solubility (mole fraction) (in n-propanol, 288.15 K): 0.107 | solubility (mole fraction) (in n-propanol, 293.15 K): 0.131 | solubility (mole fraction) (in n-propanol, 298.15 K): 0.157 | solubility (mole fraction) (in n-propanol, 303.15 K): 0.181 | solubility (mole fraction) (in n-propanol, 308.15 K): 0.211 | solubility (mole fraction) (in n-propanol, 313.15 K): 0.238 | solubility (mole fraction) (in n-propanol, 318.15 K): 0.263 | solubility (mole fraction) (in n-propanol, 323.15 K): 0.287 | solubility (mole fraction) (in tert-butanol, 298.15 K): 0.0866 | solubility (mole fraction) (in tert-butanol, 303.15 K): 0.127 | solubility (mole fraction) (in tert-butanol, 308.15 K): 0.165 | solubility (mole fraction) (in tert-butanol, 313.15 K): 0.198 | solubility (mole fraction) (in tert-butanol, 318.15 K): 0.241 | solubility (mole fraction) (in tert-butanol, 323.15 K): 0.273
